Source: patent US11370775B2, “Substituted benzimidazole derivatives as D-amino acid oxidase (DAAO) inhibitors” (NATIONAL TAIWAN UNIVERSITY, priority 2016, dated 2022)

Key:
porcine kidney DAO = molecular target: T1, porcine kidney DAO (Sus scrofa, UniProt P00371); assay: pkDAO enzymatic assay (porcine kidney DAO IC50 assay); type: biochemical; details: D-alanine substrate, pH 8.3, 37° C., without FAD
T1 construct: purchased Sigma-Aldrich; host or cells: porcine kidney
Procedure: The DAAO enzymatic activity assay was modified according to the report of Oguri et al (Oguri, S., Screening of d-amino acid oxidase inhibitor by a new multi-assay method. Food chemistry 2007, 100 (2), 616). The DAAO activity was measured by using substrate D-alanine reaction produced hydrogen peroxide (H2O2) to further react with 3-(4-hydroxyphenyl) propionic acid (HPPA). The HPPA were oxidized by H2O2 and peroxidase to become the fluorogenic dimer which was measured to represent the activity of DAAO.
For porcine kidney DAO IC50 assay, the DAO substrate was prepared in 50 mM D-alanine (dissolved in 0.2 M Tris-HCl buffer, pH 8.3). A 100 μl of D-alanine solution was mixed with 4 μl (in 100% dimethyl sulfoxide, DMSO) of different concentrations of candidate compounds shown in tables below ranging from 48.83 μM, 97.66 μM, 195.31 μM, 390.63 μM, 781.25 μM, 1.56 mM, 3.13 mM, 6.25 mM, 12.50 mM, 25.00 mM, and 50.00 mM, with a final DMSO concentration of 0.167% in each reaction concentration. 10 μl of D-alanine and candidate compound mixture was incubated with 220 μl of Reaction Master Mix in black 96 well plate at 37° C. for 5 minutes. The Reaction Master Mix contained 110 μl of 5 U/mL porcine kidney DAO (Sigma-Aldrich, USA) solution (dissolved with 0.2 M Tris-HCl buffer, pH 8.3), 1.1 mL of 15 U/mL peroxidase solution (dissolved with 0.2 M Tris-HCl buffer, pH 8.3), 1.1 mL of 20 mM HPPA solution (dissolved with 0.2 M Tris-HCl buffer, pH 8.3), and 22 ml of 2 M Tris-HCl buffer (pH 8.3) for 110 reaction assays.
Fluorescence intensity (Fs) was measured at 405 nm by irradiation excitation at 320 nm. The higher the DAO enzymatic activity was, the higher the fluorescence intensity. The fluorometric inhibition indicator (Fi) was obtained from the following equation: Fi=(Fs-FDrug)/(FDMSO), where the fluorescent drug blank (FDrug) was measured in the drug mixture solution (using 0.2 M Tris HCl buffer, pH 8.3, without D-alanine). A DMSO blank (FDMSO) was measured under a 100% DMSO solution.
Although FAD is generally included in the reaction mixture in the D-amino acid oxidase assay since it easily dissociates from the holoenzyme, the present method was performed without FAD. The inhibitory effect of DAO inhibitors was compared by using inhibitory concentrations leading to 50% inhibition of DAAO activity (IC50). The IC50 values were calculated by nonlinear regression model using GraphPad Prism, version 5(GraphPad Software, Inc., La Jolla, Calif.).

[1] = molecular target: T2, DAO in SK-N-SH neuroblastoma cells (Homo sapiens, UniProt P14920); assay: Cell-based DAO assay in SK-N-SH cells; design: key to Relative DAO activity normalize to DMSO at Final Conc. 100 uM / Relative DAO activity normalize to DMSO at Final Conc. 10 uM: fraction of DMSO-control DAO activity (1 = DMSO); details: SK-N-SH 1.25*10^5 cells/well, drug treated for 3.5 hr; for IC50: 50 mM D-serine
T2 construct: endogenous in cells; host or cells: SK-N-SH neuroblastoma cells (ATCC)
Procedure: The SK-N-SH neuroblastoma cell line was purchased from American Type Culture Collection (ATCC). It was cultured in MEM media (Invitrogen/GIBCO, Rockville, Md.) supplemented with 10% fetal bovine serum, 1×NEAA (Invitrogen/GIBCO) at 37° C. with 5% CO2 in a humidified atmosphere. Cells were trypsinized and plated into a black 96-well plate (NUNC No. 237108) at a density of 125,000 cells/well in 50 μl before cell-based DAO assay.
The cellular DAO activity assay was using a method modified according to the report of Brandish et al. (Brandish, P. E., et al., A cell-based ultra-high-throughput screening assay for identifying inhibitors of D-amino acid oxidase. J Biomol Screen, 2006. 11(5): p. 481-7). SK-N-SH cells were suspended in assay buffers of HANKS buffer solution (Invitrogen/GIBCO No. 14025-092) with 20 mM HEPES. D-serine of (final concentration 50 mM) was added in each well as the substrate for DAO enzyme. The Amplex Red Hydrogen Peroxide/Proxidase Assay Kit (Molecular Probes/Invitrogen, cat. A22188) was used to measure H2O2 production which diffused across the cell membrane into the assay medium after DAO reaction. After seeding cells into black 96-well plate (Nunc No. 237108, Denmark), 50 μl of SK-N-SH cells (125,000 cells/well) was mixed with 50 μl drug solution (2.5 fold of interesting final concentration) and incubate at 37° C. with 5% CO2 in a humidified atmosphere for 30 minutes. After 30 minutes later, 25 μl of a 5 fold mixture containing D-serine, horseradish peroxidase (HRP), and Amplex Red was added into wells containing 100 μl of cell-drugs mixture and incubated at 37° C. with 5% CO2 in a humidified atmosphere for 3 hours. The final concentration of DMSO is below 1%. The fluorescence signal was then detected in SpectraMax M2e microplate reader (Molecular Devices, USA) with excitation at 544 nm and emission at 590 nm. The optimized assay buffer contained a final concentration of 50 mM D-serine, 0.625 units HRP, and 50 μM Amplex Red in a 125 μl assay volume.

T2 sequence (P14920 whole entry): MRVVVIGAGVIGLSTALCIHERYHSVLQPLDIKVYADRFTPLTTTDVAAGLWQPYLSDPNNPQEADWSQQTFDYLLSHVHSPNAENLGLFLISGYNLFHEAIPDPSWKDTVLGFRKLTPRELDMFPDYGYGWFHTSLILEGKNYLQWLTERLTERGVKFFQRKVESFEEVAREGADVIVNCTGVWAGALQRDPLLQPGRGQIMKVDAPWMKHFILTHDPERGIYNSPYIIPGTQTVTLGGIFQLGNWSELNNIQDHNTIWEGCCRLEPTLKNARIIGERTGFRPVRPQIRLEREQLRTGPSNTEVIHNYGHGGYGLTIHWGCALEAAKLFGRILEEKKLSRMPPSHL
T1 sequence (P00371 whole entry): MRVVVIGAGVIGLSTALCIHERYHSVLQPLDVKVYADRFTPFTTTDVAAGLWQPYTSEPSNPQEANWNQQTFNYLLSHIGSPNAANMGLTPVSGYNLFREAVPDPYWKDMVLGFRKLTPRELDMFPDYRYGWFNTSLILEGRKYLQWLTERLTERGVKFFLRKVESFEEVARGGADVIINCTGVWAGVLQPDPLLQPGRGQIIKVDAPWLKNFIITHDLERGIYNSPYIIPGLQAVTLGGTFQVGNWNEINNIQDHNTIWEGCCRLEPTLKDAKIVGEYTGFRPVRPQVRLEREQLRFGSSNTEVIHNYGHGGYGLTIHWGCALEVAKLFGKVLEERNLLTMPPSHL

In the case of `COc1c(C)cnc(C[S+]([O-])c2nc3cc(OC(C)=O)ccc3[nH]2)c1C` (stereo not drawn) [compound 21122, 2-(((4-methoxy-3,5-dimethylpyridin-2-yl)methyl)sulfinyl)-1H-benzo[d]imidazol-5-yl acetate], the IC50 (porcine kidney DAO) is reported as 21.1 µM, the “Relative DAO activity normalize to DMSO at Final Conc. 10 uM” value [1] is reported as 0.99 and the “Relative DAO activity normalize to DMSO at Final Conc. 100 uM” value [1] is reported as 0.50. It also gave an IC50 [1] of 149 µM.

For `COc1c(C)cnc(C[S+]([O-])c2nc3cc(OC(=O)C4CC4)ccc3[nH]2)c1C` (stereo not drawn) [compound 28092, 2-(((4-methoxy-3,5-dimethylpyridin-2-yl)methyl)sulfinyl)-1H-benzo[d]imidazol-5-yl cyclopropanecarboxylate], the IC50 (porcine kidney DAO) was 46.7 µM, the “Relative DAO activity normalize to DMSO at Final Conc. 10 uM” value [1] was 0.94 and the “Relative DAO activity normalize to DMSO at Final Conc. 100 uM” value [1] was 0.58. The IC50 [1] was 136 µM.

With `COC(=O)c1ccc2c(c1)N=C(NCc1ncc(C)c(OC)c1C)N(CCC1=CCCCC1)C2` [compound 21106, Methyl 3-(2-(cyclohex-1-en-1-yl)ethyl)-2-(((4-methoxy-3,5-dimethylpyridin-2-yl)methyl)amino)-3,4-dihydroquinazoline-7-carboxylate] the IC50 (porcine kidney DAO) was 488 µM, the “Relative DAO activity normalize to DMSO at Final Conc. 10 uM” value [1] was 1.02 and the “Relative DAO activity normalize to DMSO at Final Conc. 100 uM” value [1] was 0.77. The IC50 [1] was 478 µM.

In the case of `O=c1[nH]oc2ccc(Cl)cc12` [CBIO, reference compound], the IC50 (porcine kidney DAO) is reported as 0.583 µM, the “Relative DAO activity normalize to DMSO at Final Conc. 10 uM” value [1] is reported as 1.00 and the “Relative DAO activity normalize to DMSO at Final Conc. 100 uM” value [1] is reported as 0.83. The IC50 [1] was 392 µM.

`COc1c(C)cnc(C[S+]([O-])c2nc3cc(OC(=O)c4ccco4)ccc3[nH]2)c1C` (stereo not drawn) [compound 12122, 2-(((4-methoxy-3,5-dimethylpyridin-2-yl)methyl)sulfinyl)-1H-benzo[d]imidazol-5-yl furan-2-carboxylate] was tested, and the IC50 (porcine kidney DAO) was 12.5 µM, the “Relative DAO activity normalize to DMSO at Final Conc. 10 uM” value [1] was 0.98 and the “Relative DAO activity normalize to DMSO at Final Conc. 100 uM” value [1] was 0.57. It also gave an IC50 [1] of 147 µM.

With `CCCCC(=O)Oc1ccc2[nH]c([S+]([O-])Cc3ncc(C)c(OC)c3C)nc2c1` (stereo not drawn) [compound 25016, 2-(((4-methoxy-3,5-dimethylpyridin-2-yl)methyl)sulfinyl)-1H-benzo[d]imidazol-5-yl pentanoate] the IC50 (porcine kidney DAO) was 13.4 µM, the “Relative DAO activity normalize to DMSO at Final Conc. 10 uM” value [1] was 1.00 and the “Relative DAO activity normalize to DMSO at Final Conc. 100 uM” value [1] was 0.62. For the same compound, the IC50 [1] was 188 µM.

`COc1c(C)cnc(C[S+]([O-])c2nc3cc(OP(=O)(Oc4ccccc4)Oc4ccccc4)ccc3[nH]2)c1C` (stereo not drawn) [compound 13084, 2-(((4-methoxy-3,5-dimethylpyridin-2-yl)methyl)sulfinyl)-1H-benzo[d]imidazol-5-yl diphenyl phosphate] was tested, and the IC50 (porcine kidney DAO) was 181 µM, the “Relative DAO activity normalize to DMSO at Final Conc. 10 uM” value [1] was 0.71 and the “Relative DAO activity normalize to DMSO at Final Conc. 100 uM” value [1] was 0.49. For the same compound, the IC50 [1] was 34.9 µM.

For `COc1c(C)cnc(C[S+]([O-])c2nc3cc(OC(=O)C=C(C)C)ccc3[nH]2)c1C` (stereo not drawn) [compound 12125, 2-(((4-methoxy-3,5-dimethylpyridin-2-yl)methyl)sulfinyl)-1H-benzo[d]imidazol-5-yl 3-methylbut-2-enoate], the IC50 (porcine kidney DAO) was 13.3 µM, the “Relative DAO activity normalize to DMSO at Final Conc. 10 uM” value [1] was 0.80 and the “Relative DAO activity normalize to DMSO at Final Conc. 100 uM” value [1] was 0.50. The IC50 [1] was 122 µM.

In the case of `COc1ccc(C(=O)Oc2ccc3[nH]c([S+]([O-])Cc4ncc(C)c(OC)c4C)nc3c2)cc1` (stereo not drawn) [compound 11020, 2-(((4-methoxy-3,5-dimethylpyridin-2-yl)methyl)sulfinyl)-1H-benzo[d]imidazol-5-yl 4-methoxybenzoate], the IC50 (porcine kidney DAO) is reported as 10.4 µM, the “Relative DAO activity normalize to DMSO at Final Conc. 10 uM” value [1] is reported as 0.97 and the “Relative DAO activity normalize to DMSO at Final Conc. 100 uM” value [1] is reported as 0.67. It also gave an IC50 [1] of 221 µM.

`COc1c(C)cnc(CN(Cc2ncc(C)c(OC)c2C)c2nc3cc(C(=O)O)ccc3n2CCC2=CCCCC2)c1C` [compound 21105, 2-(bis((4-methoxy-3,5-dimethylpyridin-2-yl)methyl)amino)-1-(2-(cyclohex-1-en-1-yl)ethyl)-1H-benzo[d]imidazole-5-carboxylic acid] was tested, and the IC50 (porcine kidney DAO) was 301 µM, the “Relative DAO activity normalize to DMSO at Final Conc. 10 uM” value [1] was 0.89 and the “Relative DAO activity normalize to DMSO at Final Conc. 100 uM” value [1] was 0.58. The IC50 [1] was 219 µM.

In the case of `COc1c(C)cnc(C[S+]([O-])c2nc3cc(OC(=O)Cc4ccccc4)ccc3[nH]2)c1C` (stereo not drawn) [compound 28094, 2-(((4-methoxy-3,5-dimethylpyridin-2-yl)methyl)sulfinyl)-1H-benzo[d]imidazol-5-yl 2-phenylacetate], the IC50 (porcine kidney DAO) is reported as 21.1 µM, the “Relative DAO activity normalize to DMSO at Final Conc. 10 uM” value [1] is reported as 1.10 and the “Relative DAO activity normalize to DMSO at Final Conc. 100 uM” value [1] is reported as 0.58. The IC50 [1] was 121 µM.

With `COc1c(C)cnc(C[S+]([O-])c2nc3cc(OC(=O)C4CCC4)ccc3[nH]2)c1C` (stereo not drawn) [compound 25027, 2-(((4-methoxy-3,5-dimethylpyridin-2-yl)methyl)sulfinyl)-1H-benzo[d]imidazol-5-yl cyclobutanecarboxylate] the IC50 (porcine kidney DAO) was 21 µM, the “Relative DAO activity normalize to DMSO at Final Conc. 10 uM” value [1] was 1.15 and the “Relative DAO activity normalize to DMSO at Final Conc. 100 uM” value [1] was 0.69. It also gave an IC50 [1] of 240 µM.

For `COC(=O)c1ccc2c(c1)N=C(N(Cc1ncc(C)c(OC)c1C)Cc1ncc(C)c(OC)c1C)N(Cc1ccco1)C2` [compound 26072, Methyl 2-(bis((4-methoxy-3,5-dimethylpyridin-2-yl)methyl)amino)-3-(furan-2-ylmethyl)-3,4-dihydroquinazoline-7-carboxylate], the IC50 (porcine kidney DAO) was 236 µM, the “Relative DAO activity normalize to DMSO at Final Conc. 10 uM” value [1] was 0.87 and the “Relative DAO activity normalize to DMSO at Final Conc. 100 uM” value [1] was 0.74. For the same compound, the IC50 [1] was 393 µM.

In the case of `C/C=C\C(=O)Oc1ccc2[nH]c([S+]([O-])Cc3ncc(C)c(OC)c3C)nc2c1` (stereo not drawn) [compound 12124, 2-(((4-methoxy-3,5-dimethylpyridin-2-yl)methyl)sulfinyl)-1H-benzo[d]imidazol-5-yl (Z)-but-2-enoate], the IC50 (porcine kidney DAO) is reported as 11.2 µM, the “Relative DAO activity normalize to DMSO at Final Conc. 10 uM” value [1] is reported as 0.97 and the “Relative DAO activity normalize to DMSO at Final Conc. 100 uM” value [1] is reported as 0.36. For the same compound, the IC50 [1] was 108 µM.

With `COc1c(C)cnc(C[S+]([O-])c2nc3cc(OC(=O)OC(C)(C)C)ccc3[nH]2)c1C` (stereo not drawn) [compound 21132, tert-butyl (2-(((4-methoxy-3,5-dimethylpyridin-2-yl)methyl)sulfinyl)-1H-benzo[d]imidazol-5-yl)carbonate] the IC50 (porcine kidney DAO) was 64.2 µM, the “Relative DAO activity normalize to DMSO at Final Conc. 10 uM” value [1] was 0.94 and the “Relative DAO activity normalize to DMSO at Final Conc. 100 uM” value [1] was 0.61. For the same compound, the IC50 [1] was 175 µM.
